The test system of one data set is hTERT-BJ. Kind of data set: Cytotoxicity against hTERT-BJ cells at 12.50 uM after 48 hrs by resazurin dye-based fluorescence assay relative to control. In kind it is cell-based. The following applies: human, 12.5 µM.
The molecule `Cc1noc(NS(=O)(=O)c2ccc(NC(=O)c3cc4cc(Br)ccc4oc3=O)cc2)c1C` registered an Activity of 1.2%.
`Cc1noc(NS(=O)(=O)c2ccc(NC(=O)c3cc4ccc(O)cc4oc3=O)cc2)c1C` showed an Activity of 3.52%.

The next data set deals with TERT-RPE1. Kind of data set: Cytotoxicity against hTERT-RPE1 cells at 50 uM after 48 hrs by resazurin dye-based fluorescence assay relative to control. It counts as cell-based. The settings on record: human, tert-rpe1, 48 h.
For the molecule `Cc1noc(NS(=O)(=O)c2ccc(NC(=O)c3cc4cc(Br)ccc4oc3=O)cc2)c1C`, the Activity came to 26.26%.
The molecule `Cc1noc(NS(=O)(=O)c2ccc(NC(=O)c3cc4ccc(O)cc4oc3=O)cc2)c1C` displayed an Activity of 5.78%.

The subject of the next data set is PANC-1. Kind of data set: Antiproliferative activity against human PANC1 cells after 48 hrs by resazurin dye-based fluorescence assay. It counts as functional, cell-based. The settings on record: PANC-1, 48 h. For orientation: Resazurin is reduced to fluorescent resorufin, in cell work by metabolically active cells.
On to `Cc1noc(NS(=O)(=O)c2ccc(NC(=O)c3cc4cc(Br)ccc4oc3=O)cc2)c1C`, for which the midpoint of inhibition, the IC50, lay at 28.7 µM.
On the same count and under the same terms, the same measure for `Cc1noc(NS(=O)(=O)c2ccc(NC(=O)c3cc4ccc(O)cc4oc3=O)cc2)c1C`: 16.2 µM.

The subject of a further data set is HepG2. The experiment in a line: Antiproliferative activity against human HepG2 cells after 48 hrs by resazurin dye-based fluorescence assay. In kind it is functional, cell-based. The following applies: HepG2, 48 h.
For the molecule `Cc1noc(NS(=O)(=O)c2ccc(NC(=O)c3cc4cc(Br)ccc4oc3=O)cc2)c1C`, half-maximal inhibition (IC50) required 8.8 µM. This lies in the single-digit micromolar range.
On to `Cc1noc(NS(=O)(=O)c2ccc(NC(=O)c3cc4ccc(O)cc4oc3=O)cc2)c1C`, for which the midpoint of inhibition, the IC50, lay at 38.8 µM.

Tested on in another data set: not listed separately
Kind of data set: Selectivity index, ratio of IC50 for hTERT-RPE1 cells to IC50 for human PANC1 cells. It counts as toxicity. The settings on record: hTERT-RPE1 cells versus PANC1 cells, read-out: Ratio IC50.
With `Cc1noc(NS(=O)(=O)c2ccc(NC(=O)c3cc4cc(Br)ccc4oc3=O)cc2)c1C`, the selectivity ratio is above 1.74.
Take `Cc1noc(NS(=O)(=O)c2ccc(NC(=O)c3cc4ccc(O)cc4oc3=O)cc2)c1C`: the selectivity ratio was above 3.09.

In the next data set the test system is TERT-RPE1. Kind of data set: Cytotoxicity against hTERT-RPE1 cells at 12.50 uM after 48 hrs by resazurin dye-based fluorescence assay relative to control. It counts as cell-based. The following applies: human, tert-rpe1, 48 h, 12.5 µM.
Consider `Cc1noc(NS(=O)(=O)c2ccc(NC(=O)c3cc4cc(Br)ccc4oc3=O)cc2)c1C`, for which the Activity was 10.36%.
Consider `Cc1noc(NS(=O)(=O)c2ccc(NC(=O)c3cc4ccc(O)cc4oc3=O)cc2)c1C`, for which the Activity stood at 5.89%.

Another data set relates to TERT-RPE1. The experiment in a line: Cytotoxicity against hTERT-RPE1 cells at 6.25 uM after 48 hrs by resazurin dye-based fluorescence assay relative to control. The settings on record: human, tert-rpe1, 48 h. It counts as cell-based.
Molecule `Cc1noc(NS(=O)(=O)c2ccc(NC(=O)c3cc4cc(Br)ccc4oc3=O)cc2)c1C` displayed an Activity of 1.84%.
Molecule `Cc1noc(NS(=O)(=O)c2ccc(NC(=O)c3cc4ccc(O)cc4oc3=O)cc2)c1C` yielded an Activity of 0.99%.

A further data set deals with CCRF-CEM. The experiment in a line: Antiproliferative activity against human CCRF-CEM cells after 48 hrs by resazurin dye-based fluorescence assay. It counts as functional, cell-based.
Settings: not given
For `Cc1noc(NS(=O)(=O)c2ccc(NC(=O)c3cc4cc(Br)ccc4oc3=O)cc2)c1C`, the IC50 (as a rule, the concentration that inhibits the measured activity by half) was found to be 14.6 µM.
`Cc1noc(NS(=O)(=O)c2ccc(NC(=O)c3cc4ccc(O)cc4oc3=O)cc2)c1C` came in with an IC50 of 21.5 µM. The IC50 values of the last two molecules are within 1.5-fold of each other.

Tested on in a further data set: not listed separately
Kind of data set: Selectivity index, ratio of IC50 for hTERT-RPE1 cells to IC50 for human CCRF-CEM cells. In kind it is toxicity. The following applies: hTERT-RPE1 cells versus CCRF-CEM cells, read-out: Ratio IC50.
In the case of `Cc1noc(NS(=O)(=O)c2ccc(NC(=O)c3cc4cc(Br)ccc4oc3=O)cc2)c1C`, the selectivity ratio is above 3.43.
The same measure, in the same setting: the same measure for `Cc1noc(NS(=O)(=O)c2ccc(NC(=O)c3cc4ccc(O)cc4oc3=O)cc2)c1C`: above 2.33.

A further data set relates to hTERT-BJ. Kind of data set: Cytotoxicity against hTERT-BJ cells at 50 uM after 48 hrs by resazurin dye-based fluorescence assay relative to control. In kind it is cell-based. The following applies: human.
As for `Cc1noc(NS(=O)(=O)c2ccc(NC(=O)c3cc4cc(Br)ccc4oc3=O)cc2)c1C`, the Activity amounted to 13.26%.
Still for that read-out and setting: the same measure for `Cc1noc(NS(=O)(=O)c2ccc(NC(=O)c3cc4ccc(O)cc4oc3=O)cc2)c1C`: 5%.

Tested on in the next data set: not listed separately
Kind of data set: Selectivity index, ratio of IC50 for hTERT-BJ cells to IC50 for human CCRF-CEM cells. The settings on record: hTERT-BJ cells versus CCRF-CEM cells, read-out: Ratio IC50. It counts as toxicity.
For `Cc1noc(NS(=O)(=O)c2ccc(NC(=O)c3cc4cc(Br)ccc4oc3=O)cc2)c1C`, the selectivity ratio was above 3.43.
Same read-out and setting: the same measure for `Cc1noc(NS(=O)(=O)c2ccc(NC(=O)c3cc4ccc(O)cc4oc3=O)cc2)c1C`: above 2.33.

A further data set has as its system hTERT-BJ. The experiment in a line: Cytotoxicity against hTERT-BJ cells at 25 uM after 48 hrs by resazurin dye-based fluorescence assay relative to control. It counts as cell-based. The following applies: human.
Molecule `Cc1noc(NS(=O)(=O)c2ccc(NC(=O)c3cc4cc(Br)ccc4oc3=O)cc2)c1C` displayed an Activity of 3.04%.
For the molecule `Cc1noc(NS(=O)(=O)c2ccc(NC(=O)c3cc4ccc(O)cc4oc3=O)cc2)c1C`, the Activity is listed as 3.63%.

Tested on in the next data set: not listed separately
The experiment in a line: Selectivity index, ratio of IC50 for hTERT-BJ cells to IC50 for human HepG2 cells. In kind it is toxicity. The settings on record: hTERT-BJ cells versus HepG2 cells, read-out: Ratio IC50.
Consider `Cc1noc(NS(=O)(=O)c2ccc(NC(=O)c3cc4cc(Br)ccc4oc3=O)cc2)c1C`, for which the selectivity ratio was above 5.68.
Same read-out and setting: the same measure for `Cc1noc(NS(=O)(=O)c2ccc(NC(=O)c3cc4ccc(O)cc4oc3=O)cc2)c1C`: above 1.29.

Another data set relates to hTERT-BJ. Kind of data set: Cytotoxicity against hTERT-BJ cells at 6.25 uM after 48 hrs by resazurin dye-based fluorescence assay relative to control. In kind it is cell-based. The settings on record: human.
In the case of `Cc1noc(NS(=O)(=O)c2ccc(NC(=O)c3cc4cc(Br)ccc4oc3=O)cc2)c1C`, the Activity was 0.95%.
Still for that read-out and setting: the same measure for `Cc1noc(NS(=O)(=O)c2ccc(NC(=O)c3cc4ccc(O)cc4oc3=O)cc2)c1C`: 1.17%.

In the next data set the test system is TERT-RPE1. Kind of data set: Cytotoxicity against hTERT-RPE1 cells after 48 hrs by resazurin dye-based fluorescence assay. The following applies: Homo sapiens, RPE-1, 48 h. In kind it is cell-based.
`Cc1noc(NS(=O)(=O)c2ccc(NC(=O)c3cc4cc(Br)ccc4oc3=O)cc2)c1C` had an IC50 above 50 µM.
Same read-out and setting: the same measure for `Cc1noc(NS(=O)(=O)c2ccc(NC(=O)c3cc4ccc(O)cc4oc3=O)cc2)c1C`: above 50 µM.

For the next data set, the system named is TERT-RPE1. Kind of data set: Cytotoxicity against hTERT-RPE1 cells at 25 uM after 48 hrs by resazurin dye-based fluorescence assay relative to control. In kind it is cell-based. The settings on record: human, tert-rpe1, 48 h.
With `Cc1noc(NS(=O)(=O)c2ccc(NC(=O)c3cc4cc(Br)ccc4oc3=O)cc2)c1C`, the Activity is recorded as 12.79%.
`Cc1noc(NS(=O)(=O)c2ccc(NC(=O)c3cc4ccc(O)cc4oc3=O)cc2)c1C` showed an Activity of 5.92%.

In another data set the test system is hTERT-BJ. Kind of data set: Cytotoxicity against hTERT-BJ cells after 48 hrs by resazurin dye-based fluorescence assay. It counts as cell-based. The settings on record: Homo sapiens.
In the case of `Cc1noc(NS(=O)(=O)c2ccc(NC(=O)c3cc4cc(Br)ccc4oc3=O)cc2)c1C`, the half-maximal inhibitory concentration (IC50) was above 50 µM.
Consider `Cc1noc(NS(=O)(=O)c2ccc(NC(=O)c3cc4ccc(O)cc4oc3=O)cc2)c1C`, for which the IC50 was above 50 µM.

Tested on in a further data set: not listed separately
The experiment in a line: Selectivity index, ratio of IC50 for hTERT-BJ cells to IC50 for human PANC1 cells. In kind it is toxicity. The settings on record: hTERT-BJ cells versus PANC1 cells, read-out: Ratio IC50.
On to `Cc1noc(NS(=O)(=O)c2ccc(NC(=O)c3cc4cc(Br)ccc4oc3=O)cc2)c1C`, for which the selectivity ratio is above 1.74.
Same read-out and setting: the same measure for `Cc1noc(NS(=O)(=O)c2ccc(NC(=O)c3cc4ccc(O)cc4oc3=O)cc2)c1C`: above 3.09.

Tested on in the next data set: not listed separately
Kind of data set: Selectivity index, ratio of IC50 for hTERT-RPE1 cells to IC50 for human HepG2 cells. It counts as toxicity. The following applies: hTERT-RPE1 cells versus HepG2 cells, read-out: Ratio IC50.
`Cc1noc(NS(=O)(=O)c2ccc(NC(=O)c3cc4cc(Br)ccc4oc3=O)cc2)c1C`: the selectivity ratio was above 5.68.
On the same count and under the same terms, the same measure for `Cc1noc(NS(=O)(=O)c2ccc(NC(=O)c3cc4ccc(O)cc4oc3=O)cc2)c1C`: above 1.29.

The values above are taken from ChEMBL document CHEMBL4152218, “Novel hydrazide-hydrazone and amide substituted coumarin derivatives: Synthesis, cytotoxicity screening, microarray, radiolabeling and in vivo pharmacokinetic studies” (Eur J Med Chem, 2018).
